How the values were obtained:
[1] = biological target: T1, recombinant human Wee1A kinase (Homo sapiens, UniProt P30291); assay: Wee1A kinase binding assay (LanthaScreen Eu time-resolved FRET); settings: 30 nM tracer 178, 5 nM Wee1A kinase, 2 nM Eu-labeled antibody; 60 minutes at room temperature; read-out: Wee1A kinase Binding IC50
T1 construct: full length Wee1 kinase was expressed by baculovirus in insect cells; purchased Invitrogen PV3817; host or cells: insect cells (baculovirus)
Summary of the method: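 Full-length, baculovirus-expressed GST-tagged Wee1A (5 nM) was mixed with 2 nM Eu-anti-GST antibody, 30 nM kinase tracer 178 and compound (1% DMSO). Buffer was 50 mM HEPES pH 7.5, 10 mM MgCl2, 1 mM EGTA, 0.01% Brij-35, incubated 60 min at room temperature. TR-FRET 665/615 nm emission ratios from duplicates were curve-fitted.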

[2] = biological target: T2, Myt1 kinase (recombinant PMYT-1) (Homo sapiens, UniProt Q99640); assay: Myt1 kinase binding assay (LanthaScreen Eu Kinase Binding Assay); settings: 3 nM tracer 178, 2.5 nM PMYT-1, 1 nM Eu-labeled antibody; read-out: Myt1 kinase Binding IC50
T2 construct: full length PMYT-1 was expressed by baculovirus in insect cells; purchased Invitrogen A30984; host or cells: insect cells (baculovirus)
T2 sequence (Q99640 1-499): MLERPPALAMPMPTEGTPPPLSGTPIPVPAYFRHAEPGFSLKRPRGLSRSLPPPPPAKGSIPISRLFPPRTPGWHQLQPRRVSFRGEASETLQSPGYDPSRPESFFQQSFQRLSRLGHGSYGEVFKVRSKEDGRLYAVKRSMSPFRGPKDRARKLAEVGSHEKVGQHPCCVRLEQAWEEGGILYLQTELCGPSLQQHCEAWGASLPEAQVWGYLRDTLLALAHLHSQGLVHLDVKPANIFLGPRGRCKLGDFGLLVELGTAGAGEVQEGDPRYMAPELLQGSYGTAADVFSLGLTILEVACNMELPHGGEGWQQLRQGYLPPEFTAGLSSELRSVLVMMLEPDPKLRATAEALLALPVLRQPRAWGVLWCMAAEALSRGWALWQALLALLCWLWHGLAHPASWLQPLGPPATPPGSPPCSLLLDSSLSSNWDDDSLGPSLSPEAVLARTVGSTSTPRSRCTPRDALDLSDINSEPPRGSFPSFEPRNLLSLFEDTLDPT
Summary of the method: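 Compound binding to Myt1 kinase was assessed using the LanthaScreen Eu Kinase Binding Assay. This europium-based binding format was applied to quantify how strongly each compound bound to the Myt1 enzyme, and the binding affinity was reported for each compound as an IC50 value.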

[3] = biological target: T3, Wee1A kinase (CDK1 Tyr15 phosphorylation in ACHN renal cell carcinoma cells) (Homo sapiens, UniProt P30291); assay: High-content imaging of pCdk1 Y15, Wee1A kinase target engagement in ACHN cells; assay type: cell-based; settings: 4 h treatment, nuclear positivity for pCdk1 Y15 vs DMSO control, read-out: CDK1 Tyr15 Phosphorylation EC50
T3 construct: pCDK1 Tyr15 immunofluorescence read-out
T3 sequence (P30291 whole entry): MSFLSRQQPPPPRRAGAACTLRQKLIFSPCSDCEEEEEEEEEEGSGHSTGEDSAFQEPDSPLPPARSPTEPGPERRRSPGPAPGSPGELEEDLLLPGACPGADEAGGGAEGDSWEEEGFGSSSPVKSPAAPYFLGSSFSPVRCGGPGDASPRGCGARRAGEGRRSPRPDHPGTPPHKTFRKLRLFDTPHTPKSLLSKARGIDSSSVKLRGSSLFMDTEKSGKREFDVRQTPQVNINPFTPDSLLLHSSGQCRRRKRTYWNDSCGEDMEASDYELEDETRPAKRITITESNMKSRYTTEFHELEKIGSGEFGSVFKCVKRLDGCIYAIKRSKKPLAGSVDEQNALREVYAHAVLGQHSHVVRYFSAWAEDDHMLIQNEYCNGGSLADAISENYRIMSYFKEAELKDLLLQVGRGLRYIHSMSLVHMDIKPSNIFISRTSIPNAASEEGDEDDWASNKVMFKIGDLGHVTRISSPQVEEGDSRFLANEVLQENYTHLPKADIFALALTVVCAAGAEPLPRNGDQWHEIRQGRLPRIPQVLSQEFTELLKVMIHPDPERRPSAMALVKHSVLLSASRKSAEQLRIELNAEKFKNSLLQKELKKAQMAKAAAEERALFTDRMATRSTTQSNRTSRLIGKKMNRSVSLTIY
Summary of the method: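 EC50 values come from the per-well fraction of cells with nuclear pCdk1 Y15 staining, normalised to DMSO control, by automated immunofluorescence imaging. Cells were ACHN renal carcinoma, treated 4 h with compound at 7–5,000 nM or 0.3–200 nM.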

T1 sequence (P30291 whole entry): as above

Row | IC50 [1] | IC50 [2] | EC50 [3] | SMILES
1 | < 0.01 µM | 0.02 to 0.1 µM | 0.1 to 0.5 µM | C=CCn1c(=O)c2cnc(Nc3cncc(Cl)c3)nc2n1-c1cccc(OC2CCN(C)CC2)n1 [Compound 323, 2-allyl-6-(5-chloro-3-pyridylamino)-1-[6-(1-methyl-4-piperidyloxy)-2-pyridyl]-1,2-dihydro-3H-1,2,5,7-tetraazainden-3-one]
2 | < 0.01 µM | 0.02 to 0.1 µM | > 1 µM | C=CCn1c(=O)c2cnc(Nc3ccc4nccn4c3)nc2n1-c1cccc(OC2CCNCC2)n1 [Compound 324, 6-(1,3a-diaza-5-indenylamino)-2-allyl-1-[6-(4-piperidyloxy)-2-pyridyl]-1,2-dihydro-3H-1,2,5,7-tetraazainden-3-one]
3 | < 0.01 µM | 0.02 to 0.1 µM | 0.1 to 0.5 µM | C=CCn1c(=O)c2cnc(Nc3cncc(F)c3)nc2n1-c1cccc(OC2CCN(C)CC2)n1 [Compound 327, 2-allyl-6-(5-fluoro-3-pyridylamino)-1-[6-(1-methyl-4-piperidyloxy)-2-pyridyl]-1,2-dihydro-3H-1,2,5,7-tetraazainden-3-one]
4 | < 0.01 µM | 0.02 to 0.1 µM | 0.1 to 0.5 µM | C=CCn1c(=O)c2cnc(Nc3ccc4nccn4c3)nc2n1-c1cccc(OC2CCN(C)CC2)n1 [Compound 328, 6-(1,3a-diaza-5-indenylamino)-2-allyl-1-[6-(1-methyl-4-piperidyloxy)-2-pyridyl]-1,2-dihydro-3H-1,2,5,7-tetraazainden-3-one]
5 | < 0.01 µM | 0.02 to 0.1 µM | 0.5 to 1 µM | C=CCn1c(=O)c2cnc(Nc3cncc(F)c3)nc2n1-c1cccc(OC2CCNCC2)n1 [Compound 329, 2-allyl-6-(5-fluoro-3-pyridylamino)-1-[6-(4-piperidyloxy)-2-pyridyl]-1,2-dihydro-3H-1,2,5,7-tetraazainden-3-one]
6 | < 0.01 µM | 0.1 to 0.5 µM | 0.1 to 0.5 µM | C=CCn1c(=O)c2cnc(Nc3cncc(C#N)c3)nc2n1-c1cccc(OC2CCN(C)CC2)n1 [Compound 330, 5-[(1-{6-[(1-methylpiperidin-4-yl)oxy]pyridin-2-yl}-3-oxo-2-(prop-2-en-1-yl)-1H,2H,3H-pyrazolo[3,4-d]pyrimidin-6-yl)amino]pyridine-3-carbonitrile]
7 | < 0.01 µM | 0.1 to 0.5 µM | < 0.1 µM | C=CCn1c(=O)c2cnc(Nc3ccc4c(cnn4C)c3)nc2n1-c1cccc(OC2CCNC(C)(C)C2)n1 (stereo not drawn) [Compound 337, 2-allyl-1-(6-((2,2-dimethylpiperidin-4-yl)oxy)pyridin-2-yl)-6-((1-methyl-1H-indazol-5-yl)amino)-1,2-dihydro-3H-pyrazolo[3,4-d]pyrimidin-3-one]
8 | < 0.01 µM | 0.02 to 0.1 µM | > 1 µM | CCn1c(=O)c2cnc(Nc3cccc(-c4ccccc4)c3)nc2n1-c1cccc(OC2CCNCC2)n1 [Compound 338, 6-(3-biphenylylamino)-2-ethyl-1-[6-(4-piperidyloxy)-2-pyridyl]-1,2-dihydro-3H-1,2,5,7-tetraazainden-3-one]
9 | < 0.01 µM | 0.02 to 0.1 µM | > 1 µM | CCn1c(=O)c2cnc(Nc3cccc(-c4ccccc4)c3)nc2n1-c1cccc(OC2CCN(C)CC2)n1 [Compound 339, 6-(3-biphenylylamino)-2-ethyl-1-[6-(1-methyl-4-piperidyloxy)-2-pyridyl]-1,2-dihydro-3H-1,2,5,7-tetraazainden-3-one]
10 | < 0.01 µM | 0.1 to 0.5 µM | > 1 µM | CCn1c(=O)c2cnc(Nc3cccc(-c4cnn(C)c4)c3)nc2n1-c1cccc(OC2CCNCC2)n1 [Compound 340, 2-ethyl-6-[m-(1-methyl-4-pyrazolyl)phenylamino]-1-[6-(4-piperidyloxy)-2-pyridyl]-1,2-dihydro-3H-1,2,5,7-tetraazainden-3-one]
11 | < 0.01 µM | 0.02 to 0.1 µM | 0.1 to 0.5 µM | C=CCn1c(=O)c2cnc(Nc3cncc(OC)c3)nc2n1-c1cccc(OC2CCN(C)CC2)n1 [Compound 342, 6-[(5-methoxypyridin-3-yl)amino]-1-{6-[(1-methylpiperidin-4-yl)oxy]pyridin-2-yl}-2-(prop-2-en-1-yl)-1H,2H,3H-pyrazolo[3,4-d]pyrimidin-3-one]
12 | < 0.01 µM | 0.1 to 0.5 µM | 0.1 to 0.5 µM | C=CCn1c(=O)c2cnc(Nc3ccc4c(cnn4C)c3)nc2n1-c1cccc(OC2CCN(C)C(C)(C)C2)n1 (stereo not drawn) [Compound 343, 2-allyl-6-((1-methyl-1H-indazol-5-yl)amino)-1-(6-((1,2,2-trimethylpiperidin-4-yl)oxy)pyridin-2-yl)-1,2-dihydro-3H-pyrazolo[3,4-d]pyrimidin-3-one]
13 | < 0.01 µM | 0.02 to 0.1 µM | 0.5 to 1 µM | C=CCn1c(=O)c2cnc(Nc3ccc4[nH]nc(C)c4c3)nc2n1-c1cccc(OC2CCNCC2)n1 [Compound 345, 2-allyl-6-((3-methyl-1H-indazol-5-yl)amino)-1-(6-(piperidin-4-yloxy)pyridin-2-yl)-1,2-dihydro-3H-pyrazolo[3,4-d]pyrimidin-3-one]
14 | < 0.01 µM | 0.02 to 0.1 µM | < 0.1 µM | C=CCn1c(=O)c2cnc(Nc3ccc4c(c3)c(C)nn4C)nc2n1-c1cccc(OC2CCNCC2)n1 [Compound 347, 2-allyl-6-((1,3-dimethyl-1H-indazol-5-yl)amino)-1-(6-(piperidin-4-yloxy)pyridin-2-yl)-1,2-dihydro-3H-pyrazolo[3,4-d]pyrimidin-3-one]
15 | < 0.01 µM | 0.02 to 0.1 µM | < 0.1 µM | C=CCn1c(=O)c2cnc(Nc3ccc(F)cc3)nc2n1-c1ccnc(OC2CCN(C)CC2)n1 [Compound 348, 2-allyl-6-((4-fluorophenyl)amino)-1-(2-((1-methylpiperidin-4-yl)oxy)pyrimidin-4-yl)-1,2-dihydro-3H-pyrazolo[3,4-d]pyrimidin-3-one]
16 | < 0.01 µM | 0.1 to 0.5 µM | 0.1 to 0.5 µM | C=CCn1c(=O)c2cnc(Nc3ccc4c(cnn4C)c3)nc2n1-c1ccnc(OC2CCNCC2)n1 [Compound 350, 2-allyl-6-((1-methyl-1H-indazol-5-yl)amino)-1-(2-(piperidin-4-yloxy)pyrimidin-4-yl)-1,2-dihydro-3H-pyrazolo[3,4-d]pyrimidin-3-one]
17 | < 0.01 µM | 0.02 to 0.1 µM | < 0.1 µM | CCn1c(=O)c2cnc(Nc3cccc(-c4cccnc4)c3)nc2n1-c1cccc(OC2CCN(C)CC2)n1 [Compound 352, 2-ethyl-1-[6-(1-methyl-4-piperidyloxy)-2-pyridyl]-6-[m-(3-pyridyl)phenylamino]-1,2-dihydro-3H-1,2,5,7-tetraazainden-3-one]
18 | < 0.01 µM | 0.02 to 0.1 µM | < 0.1 µM | CCn1c(=O)c2cnc(Nc3ccc4c(ccn4C)c3)nc2n1-c1cccc(OC2CCNCC2)n1 [Compound 353, 2-ethyl-6-((1-methyl-1H-indol-5-yl)amino)-1-(6-(piperidin-4-yloxy)pyridin-2-yl)-1,2-dihydro-3H-pyrazolo[3,4-d]pyrimidin-3-one]
19 | < 0.01 µM | < 0.02 µM | < 0.1 µM | C=CCn1c(=O)c2cnc(Nc3ccc4c(cnn4CC(C)C)c3)nc2n1-c1cccc(OC2CCNCC2)n1 [Compound 356, 2-allyl-6-((1-isobutyl-1H-indazol-5-yl)amino)-1-(6-(piperidin-4-yloxy)pyridin-2-yl)-1,2-dihydro-3H-pyrazolo[3,4-d]pyrimidin-3-one]
20 | < 0.01 µM | 0.1 to 0.5 µM | 0.1 to 0.5 µM | CCn1c(=S)c2cnc(Nc3ccc4c(cnn4C)c3)nc2n1-c1cccc(OC2CCN(C)CC2)n1 [Compound 362, 2-ethyl-6-[(1-methyl-1H-indazol-5-yl)amino]-1-{6-[(1-methylpiperidin-4-yl)oxy]pyridin-2-yl}-1H,2H,3H-pyrazolo[3,4-d]pyrimidine-3-thione]
21 | < 0.01 µM | 0.02 to 0.1 µM | 0.1 to 0.5 µM | C=CCn1c(=O)c2cnc(Nc3cccc(-n4cccn4)c3)nc2n1-c1cccc(OC2CCNCC2)n1 [Compound 363, 2-allyl-1-[6-(4-piperidyloxy)-2-pyridyl]-6-[m-(1-pyrazolyl)phenylamino]-1,2-dihydro-3H-1,2,5,7-tetraazainden-3-one]

Reference: US20260364080A1, “PYRAZOLO-PYRIMIDINONE COMPOUNDS FOR USE IN METHODS OF INHIBITING WEE1 A KINASE” (Acrivon Therapeutics, Inc., priority 2023, published 2026)
